{"source": "patent US7329422B2", "about": "“Pharmaceutical compositions” (priority 2002, dated 2008)", "key": {"[1]": {"system": "human breast cancer cells", "experiment": "purified B-2 compound on human breast cancer cells grown in tissue culture", "type": "cell-based", "excerpt": "(§1) Test were made of the purified B-2 compound on human breast cancer cells grown in tissue culture."}, "human liver cancer cells": {"system": "human liver cancer cells", "experiment": "purified B-2 compound on human liver cancer cells in tissue culture", "type": "cell-based", "conditions": "visually evident", "excerpt": "as §1\nThe experiment was repeated using human liver cancer cells."}}}
{"smiles": "Oc1cc(O)c2c(c1)O[C@H](c1ccc(O)c(O)c1)[C@H](O)[C@H]2c1c(O)cc(O)c2c1O[C@H](c1ccc(O)c(O)c1)[C@H](O)C2", "note": "[purified B-2 compound, procyanidin B-2]", "values": [{"measurement": "number of cells in treated samples", "setting": "[1]", "result": "marked reduction"}, {"measurement": "number of cancer cells", "setting": "human liver cancer cells", "result": "substantially reduced"}]}
